The values that follow come from US20230263803A1, “METHODS OF PREVENTING OR TREATING COVID-19 AND RELATED VIRAL DISEASES OR DISORDERS” (KINARUS AG, priority 2020, published 2023).

For one data set, the system named is SARS-CoV-2PR1. Nature of the data set: microbe, parasite or virus in culture. To be noted: Vero B4 cells, 72 hrs, qRT-PCR. It is filed as cell-based. In general terms: Real-time PCR tracks product formation cycle by cycle.
In another data set the test system is Vero B4 cells. The following applies: 72 hrs.

For `Cn1c(=O)c(Oc2ccc(F)cc2F)cc2cnc(NC(CCO)CCO)nc21` [Pamapimod, 6-(2,4-Difluorophenoxy)-2-[3-hydroxy-1-(2-hydroxyethyl)-propylamino]-8-methyl-8H-pyrido[2,3-d]pyrimidin-7-one], the inhibition (as a rule, the percentage by which the read-out fell short of the control) at 0.1 µM with SARS-CoV-2PR1 (Severe acute respiratory syndrome coronavirus 2, lowest concentration tested (100 nM), read-out: inhibition of shedding of new SARS-CoV-2 viruses into culture supernatants) was found to be 80%. In the data set with Vero B4 cells, the “cellular toxicity as determined by WST assay” value was “no cellular toxicity”.

Regarding `CCc1ccc(CCOc2ccc(CC3SC(=O)NC3=O)cc2)nc1` (stereo not drawn) [Pioglitazone], in the data set with SARS-CoV-2PR1 (at the highest concentrations), the “inhibition of viral shedding” value is greater than 90%.
